Laboratory results taken from publication PMC5377010 (International Journal for Parasitology: Drugs and Drug …, 2017).

T1: Thioredoxin Reductase (gTrxR) (Giardia duodenalis, UniProt E2RU27)
T1 sequence (E2RU27 1-314): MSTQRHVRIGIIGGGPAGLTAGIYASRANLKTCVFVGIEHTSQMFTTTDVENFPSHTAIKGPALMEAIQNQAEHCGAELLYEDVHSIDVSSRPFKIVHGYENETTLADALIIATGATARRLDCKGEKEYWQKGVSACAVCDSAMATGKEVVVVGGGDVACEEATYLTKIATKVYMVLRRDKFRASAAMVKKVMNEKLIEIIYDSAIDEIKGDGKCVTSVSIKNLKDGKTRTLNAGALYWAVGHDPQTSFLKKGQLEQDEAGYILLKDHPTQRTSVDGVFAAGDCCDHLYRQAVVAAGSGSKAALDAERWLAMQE

T2: Elongation Factor 1Bγ (gEF1Bγ) (Giardia duodenalis, UniProt A8BFR0)
T2 sequence (A8BFR0 1-402): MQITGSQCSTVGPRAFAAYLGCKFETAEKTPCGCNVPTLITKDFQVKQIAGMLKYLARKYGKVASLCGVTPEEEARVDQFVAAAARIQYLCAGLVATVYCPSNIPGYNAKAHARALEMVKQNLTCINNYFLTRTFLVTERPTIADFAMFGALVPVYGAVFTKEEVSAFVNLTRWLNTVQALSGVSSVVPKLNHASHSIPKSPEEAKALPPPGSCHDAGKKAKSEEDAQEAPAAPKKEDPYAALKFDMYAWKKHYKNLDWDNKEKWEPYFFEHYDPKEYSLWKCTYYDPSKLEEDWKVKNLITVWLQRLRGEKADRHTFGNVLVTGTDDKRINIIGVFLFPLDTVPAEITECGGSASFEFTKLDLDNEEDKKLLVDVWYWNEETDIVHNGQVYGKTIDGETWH


Assays:
[1] = target: T1, Thioredoxin Reductase (gTrxR); test: intrinsic protein fluorescence quenching; type: binding
[2] = target: T2, Elongation Factor 1Bγ (gEF1Bγ); test: intrinsic protein fluorescence quenching; type: binding
purified protein [3] = substrate: NC(=O)C1=CN([C@@H]2O[C@H](COP(=O)(O)OP(=O)(O)OC[C@H]3O[C@@H](n4cnc5c(N)ncnc54)[C@H](OP(=O)(O)O)[C@@H]3O)[C@@H](O)[C@H]2O)C=CC1; test: purified protein; conditions: FAD NADPH-binding domain
purified protein [4] = substrate: O=C(O)c1cc(SSc2ccc([N+](=O)[O-])c(C(=O)O)c2)ccc1[N+](=O)[O-]; test: purified protein; conditions: FAD; NADPH site partially overlapping that of NBDHEX

| Molecule | Kd [1] | Kd [2] | Km (purified protein [3]) | Km (purified protein [4]) |
| --- | --- | --- | --- | --- |
| O=[N+]([O-])c1ccc(SCCCCCCO)c2nonc12 [NBDHEX, 6-(7-nitro-2,1,3-benzoxadiazol-4-ylthio)hexanol] | 140 ± 50 nM | < 400 nM | – | – |
| Thioredoxin Reductase (gTrxR) (Giardia lamblia ATCC 50803) (protein) MSTQRHVRIGIIGGGPAGLTAGIYASRANLKTCVFVGIEHTSQMFTTTDVENFPSHTAIKGPALMEAIQNQAEHCGAELLYEDVHSIDVSSRPFKIVHGYENETTLADALIIATGATARRLDCKGEKEYWQKGVSACAVCDSAMATGKEVVVVGGGDVACEEATYLTKIATKVYMVLRRDKFRASAAMVKKVMNEKLIEIIYDSAIDEIKGDGKCVTSVSIKNLKDGKTRTLNAGALYWAVGHDPQTSFLKKGQLEQDEAGYILLKDHPTQRTSVDGVFAAGDCCDHLYRQAVVAAGSGSKAALDAERWLAMQE | – | – | 2.6 ± 0.6 µM | 1.5 ± 0.1 mM |
